Reference: patent publication US12583849B2, “KCNT1 inhibitors and methods of use” (Praxis Precision Medicines, Inc., priority 2020, dated 2026)

Molecular target: T1, KCNT1 (KNa1.1, Slack) (Homo sapiens, UniProt Q5JUK3)
T1 construct: expressed in transfected cells; host or cells: HEK-TREX (tetracycline-inducible cell line)
T1 sequence (Q5JUK3 1-1230): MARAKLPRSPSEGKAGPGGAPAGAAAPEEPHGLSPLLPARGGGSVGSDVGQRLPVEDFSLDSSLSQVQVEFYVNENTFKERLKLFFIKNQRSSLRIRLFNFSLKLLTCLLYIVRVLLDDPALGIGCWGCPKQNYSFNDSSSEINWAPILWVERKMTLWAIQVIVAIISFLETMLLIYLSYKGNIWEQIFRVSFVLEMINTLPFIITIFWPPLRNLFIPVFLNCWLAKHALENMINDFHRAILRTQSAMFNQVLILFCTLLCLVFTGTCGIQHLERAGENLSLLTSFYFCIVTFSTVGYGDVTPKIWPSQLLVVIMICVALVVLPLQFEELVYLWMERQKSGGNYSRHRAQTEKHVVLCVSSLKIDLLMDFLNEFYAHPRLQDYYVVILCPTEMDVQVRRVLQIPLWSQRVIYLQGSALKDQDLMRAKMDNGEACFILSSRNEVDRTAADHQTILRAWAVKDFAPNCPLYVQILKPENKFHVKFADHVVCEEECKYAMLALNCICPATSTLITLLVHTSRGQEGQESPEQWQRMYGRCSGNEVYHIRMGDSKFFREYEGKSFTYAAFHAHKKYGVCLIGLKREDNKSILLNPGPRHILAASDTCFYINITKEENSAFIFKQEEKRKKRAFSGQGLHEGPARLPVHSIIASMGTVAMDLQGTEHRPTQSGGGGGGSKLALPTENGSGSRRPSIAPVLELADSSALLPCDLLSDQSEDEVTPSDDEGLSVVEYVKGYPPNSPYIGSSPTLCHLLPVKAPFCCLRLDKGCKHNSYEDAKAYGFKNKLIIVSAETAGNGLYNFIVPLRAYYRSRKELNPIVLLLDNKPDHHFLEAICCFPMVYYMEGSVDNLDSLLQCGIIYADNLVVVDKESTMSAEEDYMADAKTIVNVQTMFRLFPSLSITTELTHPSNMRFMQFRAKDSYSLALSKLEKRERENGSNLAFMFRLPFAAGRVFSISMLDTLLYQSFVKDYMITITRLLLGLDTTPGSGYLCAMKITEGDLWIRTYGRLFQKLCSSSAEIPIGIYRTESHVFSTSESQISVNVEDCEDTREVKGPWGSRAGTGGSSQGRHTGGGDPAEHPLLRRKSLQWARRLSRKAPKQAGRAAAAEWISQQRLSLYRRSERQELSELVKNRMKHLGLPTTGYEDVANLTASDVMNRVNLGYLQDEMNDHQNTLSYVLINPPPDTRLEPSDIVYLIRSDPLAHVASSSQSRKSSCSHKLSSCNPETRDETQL
Test: KCNT1-WT-Basal Patch Clamp Assay
Type: cell-based
Conditions: tetracycline inducible cell line (HEK-TREX); SyncroPatch 384PE automated patch clamp, perforated patch mode, room temperature, step from -80 mV to 0 mV
Description: KCNT1-WT-Basal—Patch Clamp Assay
Inhibition of KCNT1 (KNa1.1, Slack) was evaluated using a tetracycline inducible cell line (HEK-TREX). Currents were recorded using the SyncroPatch 384PE automated, patch clamp system. Pulse generation and data collection were performed with PatchController384 V1.3.0 and DataController384 V1.2.1 (Nanion Technologies). The access resistance and apparent membrane capacitance were estimated using built-in protocols. Current were recorded in perforated patch mode (10 μM escin) from a population of cells. The cells were lifted, triturated, and resuspended at 800,000 cells/ml. The cells were allowed to recover in the cell hotel prior to experimentation. Currents were recorded at room temperature. The external solution contained the following (in mM): NaCl 105, NMDG 40, KCl 4, MgCl2 1, CaCl2 5 and HEPES 10 (pH=7.4, Osmolarity ˜300 mOsm). The extracellular solution was used as the wash, reference and compound delivery solution. The internal solution contained the following (in mM): NaCl 70, KF 70, KCl 10, EGTA 5, HEPES 5 and Escin 0.01 (pH=7.2, Osmolarity ˜295 mOsm). Escin is made at a 5 mM stock in water, aliquoted, and stored at −20° C. The compound plate was created at 2× concentrated in the extracellular solution. The compound was diluted to 1:2 when added to the recording well. The amount of DMSO in the extracellular solution was held constant at the level used for the highest tested concentration. A holding potential of −80 mV with a 100 ms step to 0 mV was used. Mean current was measured during the step to 0 mV. […] The average mean current from 3 sweeps was calculated and the % inhibition of each compound was calculated. The % Inhibition as a function of the compound concentration was fit with a Hill equation to derive IC50, slope, min and max parameters. If KCNT1 inhibition was less than 50% at the highest tested concentration or if an IC50 could not be calculated, then a percent inhibition was reported in place of the IC50.
In this table, “A” indicates IC50 of less than or equal to 1 μM; “B” indicates inhibition of between 1 μM to 20 μM; and “C” indicates inhibition of greater than or equal to 20 μM.

IC50 | Structure (SMILES)
≥ 20000 nM | CC(NC(=O)c1cn2c(n1)CCCC2)c1nc(-c2cccc(F)c2)no1 (stereo not drawn) [Compound I-52, N-[1-[3-(3-fluorophenyl)-1,2,4-oxadiazol-5-yl]ethyl]-5,6,7,8-tetrahydroimidazo[1,2-a]pyridine-2-carboxamide]
≤ 1000 nM | Cc1nc(C(F)(F)F)ccc1C(=O)N[C@@H](C)c1nc(-c2ccnc(C3CC3)c2)no1 [Compound I-53, (S)—N-(1-(3-(2-cyclopropylpyridin-4-yl)-1,2,4-oxadiazol-5-yl)ethyl)-2-methyl-6-(trifluoromethyl)nicotinamide]
≤ 1000 nM | C[C@H](NC(=O)C1CC(C)(C)C1)c1nc(-c2ccnc(C(F)(F)F)c2)no1 [Compound I-56, (S)-3,3-dimethyl-N-(1-(3-(2-(trifluoromethyl)pyridin-4-yl)-1,2,4-oxadiazol-5-yl)ethyl)cyclobutane-1-carboxamide]
≤ 1000 nM | C[C@H](NC(=O)C1CC2CCC1CC2)c1nc(-c2ccnc(C(F)(F)F)c2)no1 (stereo partly drawn) [Compound I-60, N—((S)-1-(3-(2-(trifluoromethyl)pyridin-4-yl)-1,2,4-oxadiazol-5-yl)ethyl)bicyclo[2.2.2]octane-2-carboxamide]
≤ 1000 nM | COc1ccc(C(=O)N[C@@H](C)c2nc(-c3ccnc(C4CC4)c3)no2)cc1 [Compound I-61, (S)—N-(1-(3-(2-cyclopropylpyridin-4-yl)-1,2,4-oxadiazol-5-yl)ethyl)-4-methoxybenzamide]
≤ 1000 nM | C[C@H](NC(=O)c1ccc(Cl)cc1)c1nc(-c2ccnc(C3CC3)c2)no1 [Compound I-62, (S)-4-chloro-N-(1-(3-(2-cyclopropylpyridin-4-yl)-1,2,4-oxadiazol-5-yl)ethyl)benzamide]
≤ 1000 nM | C[C@H](NC(=O)c1cccc(Cl)c1)c1nc(-c2ccnc(C3CC3)c2)no1 [Compound I-63, 3-chloro-N-[(1S)-1-[3-(2-cyclopropyl-4-pyridyl)-1,2,4-oxadiazol-5-yl]ethyl]benzamide]
≤ 1000 nM | C[C@H](NC(=O)C1CCC(C)(C)CC1)c1nc(-c2ccnc(C(F)(F)F)c2)no1 [Compound I-67, (S)-4,4-dimethyl-N-(1-(3-(2-(trifluoromethyl)pyridin-4-yl)-1,2,4-oxadiazol-5-yl)ethyl)cyclohexane-1-carboxamide]

The next lines start with the compound.

Structure (SMILES) | IC50
Cc1nc(C(F)(F)F)ccc1C(=O)NC(C)c1nc(-c2cccc(F)c2)no1 (stereo not drawn) [Compound I-47, N-[1-[3-(3-fluorophenyl)-1,2,4-oxadiazol-5-yl]ethyl]-2-methyl-6-(trifluoromethyl)pyridine-3-carboxamide] | 1000 to 20000 nM
Cc1ncc(C(=O)NC(C)c2nc(-c3cccc(F)c3)no2)c(C)n1 (stereo not drawn) [Compound I-48, N-[1-[3-(3-fluorophenyl)-1,2,4-oxadiazol-5-yl]ethyl]-2,4-dimethyl-pyrimidine-5-carboxamide] | ≥ 20000 nM
Cc1c(C(=O)NC(C)c2nc(-c3cccc(F)c3)no2)nc2ccccn12 (stereo not drawn) [Compound I-49, N-[1-[3-(3-fluorophenyl)-1,2,4-oxadiazol-5-yl]ethyl]-3-methyl-imidazo[1,2-a]pyridine-2-carboxamide] | ≥ 20000 nM
CC(NC(=O)c1cn2ccccc2n1)c1nc(-c2cccc(F)c2)no1 (stereo not drawn) [Compound I-50, N-[1-[3-(3-fluorophenyl)-1,2,4-oxadiazol-5-yl]ethyl]imidazo[1,2-a]pyridine-2-carboxamide] | ≥ 20000 nM
CC(NC(=O)c1ccc2c(c1)OCCO2)c1nc(-c2cccc(F)c2)no1 (stereo not drawn) [Compound I-51, N-[1-[3-(3-fluorophenyl)-1,2,4-oxadiazol-5-yl]ethyl]-2,3-dihydro-1,4-benzodioxine-6-carboxamide] | 1000 to 20000 nM
C[C@H](NC(=O)[C@@H]1CCC(=O)N1)c1nc(-c2ccnc(C(F)(F)F)c2)no1 [Compound I-54, (S)-5-oxo-N—((S)-1-(3-(2-(trifluoromethyl)pyridin-4-yl)-1,2,4-oxadiazol-5-yl)ethyl)pyrrolidine-2-carboxamide] | ≥ 20000 nM
C[C@H](NC(=O)c1ccc(Br)s1)c1nc(-c2ccnc(C3CC3)c2)no1 [Compound I-57, (S)-5-bromo-N-(1-(3-(2-cyclopropylpyridin-4-yl)-1,2,4-oxadiazol-5-yl)ethyl)thiophene-2-carboxamide] | ≤ 1000 nM
C[C@H](NC(=O)[C@H](C)c1ccccc1)c1nc(-c2ccnc(C3CC3)c2)no1 [Compound I-58, (R)—N—((S)-1-(3-(2-cyclopropylpyridin-4-yl)-1,2,4-oxadiazol-5-yl)ethyl)-2-phenylpropanamide] | ≤ 1000 nM
C[C@H](NC(=O)C12CCC(CC1)CC2)c1nc(-c2ccnc(C(F)(F)F)c2)no1 [Compound I-59, (S)—N-(1-(3-(2-(trifluoromethyl)pyridin-4-yl)-1,2,4-oxadiazol-5-yl)ethyl)bicyclo[2.2.2]octane-1-carboxamide] | ≤ 1000 nM
C[C@H](NC(=O)[C@@H](C)c1ccccc1)c1nc(-c2ccnc(C3CC3)c2)no1 [Compound I-64, (2S)—N-[(1S)-1-[3-(2-cyclopropyl-4-pyridyl)-1,2,4-oxadiazol-5-yl]ethyl]-2-phenyl-propanamide] | ≤ 1000 nM
C[C@H](NC(=O)C1CCN(C)CC1)c1nc(-c2ccnc(C(F)(F)F)c2)no1 [Compound I-65, (S)-1-methyl-N-(1-(3-(2-(trifluoromethyl)pyridin-4-yl)-1,2,4-oxadiazol-5-yl)ethyl)piperidine-4-carboxamide] | ≥ 20000 nM
C[C@H](NC(=O)C1CCCCN1C)c1nc(-c2ccnc(C(F)(F)F)c2)no1 (stereo partly drawn) [Compound I-66, 1-methyl-N—((S)-1-(3-(2-(trifluoromethyl)pyridin-4-yl)-1,2,4-oxadiazol-5-yl)ethyl)piperidine-2-carboxamide] | ≥ 20000 nM
C[C@H](NC(=O)C1CCCN(C)C1)c1nc(-c2ccnc(C(F)(F)F)c2)no1 (stereo partly drawn) [Compound I-68, 1-methyl-N—((S)-1-(3-(2-(trifluoromethyl)pyridin-4-yl)-1,2,4-oxadiazol-5-yl)ethyl)piperidine-3-carboxamide] | ≥ 20000 nM
COC1CCC(C(=O)N[C@@H](C)c2nc(-c3ccnc(C(F)(F)F)c3)no2)CC1 (stereo partly drawn) [Compound I-69, (S)-4-methoxy-N-(1-(3-(2-(trifluoromethyl)pyridin-4-yl)-1,2,4-oxadiazol-5-yl)ethyl)cyclohexane-1-carboxamide] | 1000 to 20000 nM
C[C@H](NC(=O)c1ccc(S(C)(=O)=O)s1)c1nc(-c2ccnc(C3CC3)c2)no1 [Compound I-70, (S)—N-(1-(3-(2-cyclopropylpyridin-4-yl)-1,2,4-oxadiazol-5-yl)ethyl)-5-(methylsulfonyl)thiophene-2-carboxamide] | ≤ 1000 nM
C[C@H](NC(=O)C1(C)CCCCC1)c1nc(-c2ccnc(C(F)(F)F)c2)no1 [Compound I-71, 1-methyl-N-[(1S)-1-[3-[2-(trifluoromethyl)-4-pyridyl]-1,2,4-oxadiazol-5-yl]ethyl]cyclohexanecarboxamide] | ≤ 1000 nM
